The test system of this assay is MV-4-11 cells. Briefly: Gene expression microarray analysis (Affymetrix PrimeView) and GSEA. Format: cell-based, human. Further details: RFU PODN (11730768_x_at) / Fold change /veh PODN (11730768_x_at) / RFU LINC00158 (11744669_a_at) / Fold change /veh LINC00158 (11744669_a_at) / RFU DUSP10 (11751237_a_at) / Fold change /veh DUSP10 (11751237_a_at) / RFU ID3 (11757404_x_at) / Fold change /veh ID3 (11757404_x_at) / RFU PLEKHG5 (11737974_s_at) / Fold change /veh PLEKHG5 (11737974_s_at) / RFU LRRC4B (11730491_at) / Fold change /veh LRRC4B (11730491_at) / RFU GIMAP4 (11747438_a_at) / Fold change /veh GIMAP4 (11747438_a_at) / RFU KRT8 (11758183_x_at) / Fold change /veh KRT8 (11758183_x_at) / RFU CNN1 (11734310_a_at) / Fold change /veh CNN1 (11734310_a_at) / RFU VPS37D (11726825_at) / Fold change /veh VPS37D (11726825_at) / RFU C10orf10 (11716522_x_at) / Fold change /veh C10orf10 (11716522_x_at) / RFU KIR2DL2 /// KIR2DL4 /// KIR2DL5A /// KIR2DL5B /// KIR2DS1 /// KIR2DS2 /// KIR2DS3 /// KIR2DS4 /// KIR3DL3 /// KIR3DL3 /// KIR3DS1 (11738374_at) / Fold change /veh KIR2DL2 /// KIR2DL4 /// KIR2DL5A /// KIR2DL5B /// KIR2DS1 /// KIR2DS2 /// KIR2DS3 /// KIR2DS4 /// KIR3DL3 /// KIR3DL3 /// KIR3DS1 (11738374_at) / RFU C1QL1 (11718748_at) / Fold change /veh C1QL1 (11718748_at) / RFU TMPRSS4 (11747572_a_at) / Fold change /veh TMPRSS4 (11747572_a_at) / RFU HAMP (11756126_x_at) / Fold change /veh HAMP (11756126_x_at) / RFU RNFT2 (11725882_a_at) / Fold change /veh RNFT2 (11725882_a_at) / RFU NR4A2 (11747474_a_at) / Fold change /veh NR4A2 (11747474_a_at) / RFU ABCC12 (11746883_a_at) / Fold change /veh ABCC12 (11746883_a_at) / RFU TMEM136 (11760407_x_at) / Fold change /veh TMEM136 (11760407_x_at) / RFU CLDN22 /// WWC2 (11732394_at) / Fold change /veh CLDN22 /// WWC2 (11732394_at) / RFU HLA-DPB1 (11760878_x_at) / Fold change /veh HLA-DPB1 (11760878_x_at) / RFU SPINT1 (11716480_a_at) / Fold change /veh SPINT1 (11716480_a_at) / RFU GAP43 (11754022_s_at) / Fold change /veh GAP43 (11754022_s_at) / RFU A4GNT (11735810_at) / Fold change /veh A4GNT (11735810_at) / RFU PRB3 (11715151_x_at) / Fold change /veh PRB3 (11715151_x_at) / RFU TUBB4B (11761932_at) / Fold change /veh TUBB4B (11761932_at) / RFU CAPN14 (11732068_a_at) / Fold change /veh CAPN14 (11732068_a_at) / RFU TMCC2 (11721928_a_at) / Fold change /veh TMCC2 (11721928_a_at) / RFU IRGQ (11745062_a_at) / Fold change /veh IRGQ (11745062_a_at) / RFU FAM174B (11720279_a_at) / Fold change /veh FAM174B (11720279_a_at) / RFU TMPRSS4 (11748680_a_at) / Fold change /veh TMPRSS4 (11748680_a_at) / RFU FAM212B (11763350_a_at) / Fold change /veh FAM212B (11763350_a_at) / RFU PLEKHG5 (11743358_a_at) / Fold change /veh PLEKHG5 (11743358_a_at) / RFU ZSCAN30 (11745921_a_at) / Fold change /veh ZSCAN30 (11745921_a_at) / RFU CMKLR1 (11741424_a_at) / Fold change /veh CMKLR1 (11741424_a_at) / RFU LOC101060620 /// MAPK8IP1 (11723275_at) / Fold change /veh LOC101060620 /// MAPK8IP1 (11723275_at) / RFU SPTSSB (11747773_x_at) / Fold change /veh SPTSSB (11747773_x_at) / RFU PRSS12 (11739890_at) / Fold change /veh PRSS12 (11739890_at) / RFU BIN1 (11741810_x_at) / Fold change /veh BIN1 (11741810_x_at) / RFU WNT11 (11732464_a_at) / Fold change /veh WNT11 (11732464_a_at) / RFU C10orf10 (11716521_a_at) / Fold change /veh C10orf10 (11716521_a_at) / RFU C5orf56 (11738089_at) / Fold change /veh C5orf56 (11738089_at) / RFU CYB561 (11721691_x_at) / Fold change /veh CYB561 (11721691_x_at) / RFU ANKRD19P (11752326_a_at) / Fold change /veh ANKRD19P (11752326_a_at) / RFU OR2T12 /// OR2T33 /// OR2T8 (11738714_s_at) / Fold change /veh OR2T12 /// OR2T33 /// OR2T8 (11738714_s_at) / RFU VCAN (11748164_a_at) / Fold change /veh VCAN (11748164_a_at) / RFU JSRP1 (11732532_at) / Fold change /veh JSRP1 (11732532_at) / RFU KRTAP10-11 (11738290_x_at) / Fold change /veh KRTAP10-11 (11738290_x_at) / RFU MYO3A (11730013_a_at) / Fold change /veh MYO3A (11730013_a_at) / RFU EBF3 (11725865_a_at) / Fold change /veh EBF3 (11725865_a_at) / RFU CAMK2N1 (11719241_x_at) / Fold change /veh CAMK2N1 (11719241_x_at) / RFU C5orf56 (11738088_a_at) / Fold change /veh C5orf56 (11738088_a_at) / RFU OLFML3 (11715873_a_at) / Fold change /veh OLFML3 (11715873_a_at) / RFU LOC100653217 /// NTM (11731650_a_at) / Fold change /veh LOC100653217 /// NTM (11731650_a_at) / RFU MAPK11 (11762145_a_at) / Fold change /veh MAPK11 (11762145_a_at) / RFU FIZ1 (11724087_x_at) / Fold change /veh FIZ1 (11724087_x_at) / RFU OASL (11726364_x_at) / Fold change /veh OASL (11726364_x_at) / RFU SOX15 (11748057_x_at) / Fold change /veh SOX15 (11748057_x_at) / RFU CD79A (11719716_a_at) / Fold change /veh CD79A (11719716_a_at) / RFU HIST1H1D (11736915_at) / Fold change /veh HIST1H1D (11736915_at) / RFU CASKIN2 (11723855_a_at) / Fold change /veh CASKIN2 (11723855_a_at) / RFU LOC730098 (11760151_x_at) / Fold change /veh LOC730098 (11760151_x_at) / RFU OR4N2 (11742367_at) / Fold change /veh OR4N2 (11742367_at) / RFU PRRT2 (11749266_a_at) / Fold change /veh PRRT2 (11749266_a_at) / RFU SNX32 (11753110_a_at) / Fold change /veh SNX32 (11753110_a_at) / RFU CDHR5 (11726645_a_at) / Fold change /veh CDHR5 (11726645_a_at) / RFU RCAN1 (11760418_a_at) / Fold change /veh RCAN1 (11760418_a_at) / RFU FAM167A (11723789_a_at) / Fold change /veh FAM167A (11723789_a_at) / RFU FAM26E (11764081_at) / Fold change /veh FAM26E (11764081_at) / RFU ISYNA1 (11749810_s_at) / Fold change /veh ISYNA1 (11749810_s_at) / RFU ACY1 (11761880_at) / Fold change /veh ACY1 (11761880_at) / RFU 11764098_at / Fold change /veh 11764098_at / RFU SAMD14 (11745864_x_at) / Fold change /veh SAMD14 (11745864_x_at) / RFU NPB (11741838_a_at) / Fold change /veh NPB (11741838_a_at) / RFU TMPRSS6 (11731388_a_at) / Fold change /veh TMPRSS6 (11731388_a_at) / RFU KRTAP10-2 (11738614_at) / Fold change /veh KRTAP10-2 (11738614_at) / RFU ARHGAP8 /// PRR5-ARHGAP8 (11727945_x_at) / Fold change /veh ARHGAP8 /// PRR5-ARHGAP8 (11727945_x_at) / RFU KRTAP5-7 /// NADSYN1 (11734609_at) / Fold change /veh KRTAP5-7 /// NADSYN1 (11734609_at) / RFU RASL12 (11751679_a_at) / Fold change /veh RASL12 (11751679_a_at) / RFU CDKN2B (11736163_a_at) / Fold change /veh CDKN2B (11736163_a_at) / RFU PRF1 (11729649_at) / Fold change /veh PRF1 (11729649_at) / RFU, ZNF638 /// ZNF638-IT1 / Fold change vs veh, ZNF638 /// ZNF638-IT1 / RFU, PANK3 / Fold change vs veh, PANK3 / RFU, SH3YL1 / Fold change vs veh, SH3YL1 / RFU, ZEB2 / Fold change vs veh, ZEB2 / RFU, NRIP1 / Fold change vs veh, NRIP1 / RFU, PTTG1IP / Fold change vs veh, PTTG1IP / RFU, CAPN2 / Fold change vs veh, CAPN2 / RFU, MED14 / Fold change vs veh, MED14 / RFU, SNORA58 / Fold change vs veh, SNORA58 / RFU, C1orf63 / Fold change vs veh, C1orf63 / RFU, LRRFIP1 / Fold change vs veh, LRRFIP1 / RFU, NDUFAF7 / Fold change vs veh, NDUFAF7 / RFU, SLC12A2 / Fold change vs veh, SLC12A2 / RFU, IBTK / Fold change vs veh, IBTK / RFU, ESF1 / Fold change vs veh, ESF1 / Fold change vs veh, TMEM50B / RFU, TAOK1 / Fold change vs veh, TAOK1 / RFU, ACBD3 / Fold change vs veh, ACBD3 / RFU, TMA16 / Fold change vs veh, TMA16 / RFU, RWDD3 / Fold change vs veh, RWDD3 / RFU, BCAT1 / Fold change vs veh, BCAT1 / RFU, EDEM3 / Fold change vs veh, EDEM3 / RFU, TMEM33 / Fold change vs veh, TMEM33 / RFU, WDR75 / Fold change vs veh, WDR75 / RFU, AHCTF1 / Fold change vs veh, AHCTF1 / RFU, TFRC / Fold change vs veh, TFRC / RFU, ZDHHC17 / Fold change vs veh, ZDHHC17 / RFU, NOM1 / Fold change vs veh, NOM1 / RFU, ARL8B / Fold change vs veh, ARL8B / RFU, ZBTB11 / Fold change vs veh, ZBTB11 / RFU, TAMM41 / Fold change vs veh, TAMM41 / RFU, KIAA1704 /// LOC100996395 / Fold change vs veh, KIAA1704 /// LOC100996395 / RFU, ING1 / Fold change vs veh, ING1 / RFU, TRMT61B / Fold change vs veh, TRMT61B / RFU, FUBP3 / Fold change vs veh, FUBP3 / RFU, TP53 / Fold change vs veh, TP53 / RFU, TNKS2 / Fold change vs veh, TNKS2 / RFU, ZFP14 / Fold change vs veh, ZFP14 / RFU, ACTR2 / Fold change vs veh, ACTR2 / RFU, PPP3R1 / Fold change vs veh, PPP3R1 / RFU, PIK3R1 / Fold change vs veh, PIK3R1 / RFU, HNRNPA1 / Fold change vs veh, HNRNPA1 / RFU, RNF170 / Fold change vs veh, RNF170 / RFU, ZNF28 / Fold change vs veh, ZNF28 / RFU, RNGTT / Fold change vs veh, RNGTT / RFU, OGT / Fold change vs veh, OGT / RFU, BRD1 / Fold change vs veh, BRD1 / RFU, MARS / Fold change vs veh, MARS / RFU, ZNF655 / Fold change vs veh, ZNF655 / RFU, FAHD1 / Fold change vs veh, FAHD1 / RFU, BDP1 / Fold change vs veh, BDP1 / RFU, LRRCC1 / Fold change vs veh, LRRCC1 / RFU, ARID1A / Fold change vs veh, ARID1A / RFU, ZNF146 / Fold change vs veh, ZNF146 / RFU, ZNF330 / Fold change vs veh, ZNF330 / RFU, GPN3 / Fold change vs veh, GPN3 / RFU, C9orf123 / Fold change vs veh, C9orf123 / RFU, N4BP2L2 / Fold change vs veh, N4BP2L2 / RFU, ARFIP1 / Fold change vs veh, ARFIP1 / RFU, FAM179B / Fold change vs veh, FAM179B / RFU, BCL10 / Fold change vs veh, BCL10 / RFU, UHRF1BP1L / Fold change vs veh, UHRF1BP1L / RFU, BET1 / Fold change vs veh, BET1 / RFU, CNOT2 / Fold change vs veh, CNOT2 / RFU, ZNF268 / Fold change vs veh, ZNF268 / Fold change vs veh, ZNF507 / RFU, DGCR2 / Fold change vs veh, DGCR2 / RFU, WDSUB1 / Fold change vs veh, WDSUB1 / Fold change vs veh, HSP90B1 /// MIR3652 / RFU, ADSS / Fold change vs veh, ADSS / RFU, GK / Fold change vs veh, GK / RFU, ZNF148 / Fold change vs veh, ZNF148 / RFU, TAF9 / Fold change vs veh, TAF9 / RFU, SLC1A5 / Fold change vs veh, SLC1A5 / RFU, SLMO2 / Fold change vs veh, SLMO2 / RFU, ABCC4 / Fold change vs veh, ABCC4 / RFU, LOC101060439 /// RAP1B / Fold change vs veh, LOC101060439 /// RAP1B / RFU, RFX7 / Fold change vs veh, RFX7 / RFU, GTPBP10 / Fold change vs veh, GTPBP10 / RFU, CNEP1R1 / Fold change vs veh, CNEP1R1 / RFU, BIVM-ERCC5 /// ERCC5 / Fold change vs veh, BIVM-ERCC5 /// ERCC5 / RFU, ILF3 / Fold change vs veh, ILF3 / RFU 11762660_at / Fold change /veh 11762660_at / RFU VCAN (11757783_s_at) / Fold change /veh VCAN (11757783_s_at) / RFU DDX43 (11728927_at) / Fold change /veh DDX43 (11728927_at) / RFU KRT8 (11758188_x_at) / Fold change /veh KRT8 (11758188_x_at) / RFU NKD1 (11759106_at) / Fold change /veh NKD1 (11759106_at) / RFU SRD5A1 (11742802_a_at) / Fold change /veh SRD5A1 (11742802_a_at) / RFU TPSAB1 /// TPSB2 (11721975_s_at) / Fold change /veh TPSAB1 /// TPSB2 (11721975_s_at) / RFU GSTM3 (11746129_a_at) / Fold change /veh GSTM3 (11746129_a_at) / RFU IL23R (11737362_x_at) / Fold change /veh IL23R (11737362_x_at) / RFU TMEM51 (11727254_a_at) / Fold change /veh TMEM51 (11727254_a_at) / RFU PIWIL2 (11732686_x_at) / Fold change /veh PIWIL2 (11732686_x_at) / RFU ORM1 (11744905_x_at) / Fold change /veh ORM1 (11744905_x_at) / RFU CCDC152 (11743942_at) / Fold change /veh CCDC152 (11743942_at) / RFU ECM1 (11717891_a_at) / Fold change /veh ECM1 (11717891_a_at) / RFU IL23R (11748794_a_at) / Fold change /veh IL23R (11748794_a_at) / RFU TNFAIP8L3 (11732012_x_at) / Fold change /veh TNFAIP8L3 (11732012_x_at) / RFU MBOAT4 (11741988_at) / Fold change /veh MBOAT4 (11741988_at) / RFU 11764193_at / Fold change /veh 11764193_at / RFU TMEM53 (11763286_at) / Fold change /veh TMEM53 (11763286_at) / RFU MAGEB2 (11727129_at) / Fold change /veh MAGEB2 (11727129_at) / RFU TMEM200A (11744735_a_at) / Fold change /veh TMEM200A (11744735_a_at) / RFU CCDC152 (11751479_a_at) / Fold change /veh CCDC152 (11751479_a_at) / RFU FAM211A (11726209_a_at) / Fold change /veh FAM211A (11726209_a_at) / RFU RGS16 (11746705_a_at) / Fold change /veh RGS16 (11746705_a_at) / RFU VCAN (11755009_s_at) / Fold change /veh VCAN (11755009_s_at) / RFU RHOB (11743442_s_at) / Fold change /veh RHOB (11743442_s_at) / RFU RGS16 (11720943_a_at) / Fold change /veh RGS16 (11720943_a_at) / RFU RGS16 (11720944_at) / Fold change /veh RGS16 (11720944_at) / RFU, VPS4B / Fold change vs veh, VPS4B / RFU, CREB1 / Fold change vs veh, CREB1 / RFU, DNAJC13 / Fold change vs veh, DNAJC13 / RFU, GNAQ / Fold change vs veh, GNAQ / RFU, CDK5R1 / Fold change vs veh, CDK5R1 / RFU, ZRANB3 / Fold change vs veh, ZRANB3 / RFU, CUL4A / Fold change vs veh, CUL4A / RFU, CCNY / Fold change vs veh, CCNY / RFU, UFL1 / Fold change vs veh, UFL1 / RFU, COG3 / Fold change vs veh, COG3 / RFU, DIAPH2 / Fold change vs veh, DIAPH2 / RFU, SKA2 / Fold change vs veh, SKA2 / RFU, AFF3 / Fold change vs veh, AFF3 / RFU, LMF1 / Fold change vs veh, LMF1 / RFU, IPO11 / Fold change vs veh, IPO11 / RFU, DFFB / Fold change vs veh, DFFB / RFU, FOXP1 / Fold change vs veh, FOXP1 / RFU, CARD8 / Fold change vs veh, CARD8 / RFU, STRN3 / Fold change vs veh, STRN3 / RFU, ADK / Fold change vs veh, ADK / RFU, RASSF2 / Fold change vs veh, RASSF2 / RFU, WIPF1 / Fold change vs veh, WIPF1 / RFU, LARP1B / Fold change vs veh, LARP1B / RFU, RASA1 / Fold change vs veh, RASA1 / RFU, RB1 / Fold change vs veh, RB1 / RFU, PPFIA1 / Fold change vs veh, PPFIA1 / RFU, MAT2A / Fold change vs veh, MAT2A / RFU, CCT5 / Fold change vs veh, CCT5 / RFU, WDR92 / Fold change vs veh, WDR92 / RFU, CUX1 / Fold change vs veh, CUX1 / RFU, TTC7A / Fold change vs veh, TTC7A / RFU, TMEM135 / Fold change vs veh, TMEM135 / RFU, DEPTOR / Fold change vs veh, DEPTOR / RFU, CPM / Fold change vs veh, CPM / RFU, DNAJB6 / Fold change vs veh, DNAJB6 / RFU, CACNA2D3 / Fold change vs veh, CACNA2D3 / RFU, DTX4 / Fold change vs veh, DTX4 / RFU, TFCP2 / Fold change vs veh, TFCP2 / RFU, GMCL1 /// GMCL1P1 / Fold change vs veh, GMCL1 /// GMCL1P1 / RFU, AEBP2 / Fold change vs veh, AEBP2 / RFU, SNHG1 /// SNORD22 /// SNORD25 /// SNORD26 /// SNORD27 /// SNORD28 /// SNORD29 /// SNORD31 / Fold change vs veh, SNHG1 /// SNORD22 /// SNORD25 /// SNORD26 /// SNORD27 /// SNORD28 /// SNORD29 /// SNORD31 / Fold change (Aza/veh), C12orf56 (ProbeSet 11735607_a_at) / Fold change (ACY-1035/veh), C12orf56 (ProbeSet 11735607_a_at) / Fold change (Aza/veh), FGFR1OP (ProbeSet 11751329_s_at) / Fold change (ACY-1035/veh), FGFR1OP (ProbeSet 11751329_s_at) / Fold change (Aza/veh), VPS36 (ProbeSet 11739960_a_at) / Fold change (ACY-1035/veh), VPS36 (ProbeSet 11739960_a_at) / RFU SYPL1 (11715823_x_at) / Fold change /veh SYPL1 (11715823_x_at) / RFU IGFBP7 (11715501_s_at) / Fold change /veh IGFBP7 (11715501_s_at) / RFU REEP3 (11722064_at) / Fold change /veh REEP3 (11722064_at) / RFU IGLL1 (11728026_x_at) / Fold change /veh IGLL1 (11728026_x_at): dose or concentration left out as unconfirmed. Particulars: MV-4-11 cells, 48 hours.

In the case of `Nc1ccc(-c2cccs2)cc1NC(=O)c1ccc2c(c1)cc(C1CC1)n2CCN1CCOCC1` [ACY-1035], the “Fold change /veh C5orf56 (11738089_at)” value is listed as 1.04.
